Values joined by “and” are separate entries in the source; they are usually repeats but may differ in a detail not shown here. Identical values can stand only once. Inconclusive results and toxic doses are left out. The calls were made as follows: active = survival T/C of 150% or more; inactive = T/C below 125% in these data. Peptide text beside a SMILES is read from it. * marks the point of attachment. Cbz = O=C(OCc1ccccc1)*
System: P388 leukemia ip, CD2F1 mice, survival T/C
Test: NCI In Vivo Anticancer Drug Screen. Data for tumor model P388 Leukemia (intraperitoneal) in CD2F1 (CDF1) mice
Conditions: endpoint: median survival time, higher = longer survival
How it was run: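 Mice carrying the transplanted tumor received test compound or vehicle. Survival was recorded in each group, and the value is the treated-group measurement divided by that of the vehicle-treated control group.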

[1] = dose: 25.0 mg/kg/injection, schedule: Q01DX009 (ip), vehicle: saline with Tween-80
[2] = dose: 50.0 mg/kg/injection, schedule: Q01DX009 (ip), vehicle: Klucel (hydroxypropylcellulose) (HPC)
[3] = dose: 100.0 mg/kg/injection, schedule: Q01DX009 (ip), vehicle: Klucel (hydroxypropylcellulose) (HPC)
[4] = dose: 50.0 mg/kg/injection, schedule: Q01DX005 (ip), vehicle: Klucel (hydroxypropylcellulose) (HPC)
[5] = dose: 100.0 mg/kg/injection, schedule: Q01DX005 (ip), vehicle: Klucel (hydroxypropylcellulose) (HPC)
[6] = dose: 200.0 mg/kg/injection, schedule: Q01DX005 (ip), vehicle: Klucel (hydroxypropylcellulose) (HPC)
[7] = dose: 60.0 mg/kg/injection, schedule: Q01DX005 (ip), vehicle: saline
[8] = dose: 120.0 mg/kg/injection, schedule: Q01DX005 (ip), vehicle: saline
[9] = dose: 240.0 mg/kg/injection, schedule: Q01DX005 (ip), vehicle: saline
[10] = dose: 12.5 mg/kg/injection, schedule: Q01DX005 (ip), vehicle: Klucel (hydroxypropylcellulose) (HPC)
[11] = dose: 25.0 mg/kg/injection, schedule: Q01DX005 (ip), vehicle: Klucel (hydroxypropylcellulose) (HPC)

Measured: T/C

O=c1c2cccc3cccc(c32)c2nc3ccccc3n12
inactive: dose: 4.12 mg/kg/injection, schedule: Q01DX009 (ip), vehicle: saline with Tween-80 108 % of control | dose: 6.25 mg/kg/injection, schedule: Q01DX009 (ip), vehicle: saline with Tween-80 100 % of control | [1] 95 % of control

CCC[CH2][Sn]1([CH2]CCC)[O]OC2(CCCCC2)[O]1
inactive: dose: 1.25 mg/kg/injection, schedule: Q01DX009 (ip), vehicle: saline with Tween-80 113 % of control | dose: 2.5 mg/kg/injection, schedule: Q01DX009 (ip), vehicle: saline with Tween-80 109 % of control

COc1cc2c(cc1OC)C(C)(C)N(Cc1ccccc1)C(C)C2(C)C (configuration not stated)
inactive: dose: 3.12 mg/kg/injection, schedule: Q01DX009 (ip), vehicle: Klucel (hydroxypropylcellulose) (HPC) 105 % of control | dose: 6.25 mg/kg/injection, schedule: Q01DX009 (ip), vehicle: Klucel (hydroxypropylcellulose) (HPC) 105 % of control | dose: 12.5 mg/kg/injection, schedule: Q01DX009 (ip), vehicle: Klucel (hydroxypropylcellulose) (HPC) 114 % of control | dose: 25.0 mg/kg/injection, schedule: Q01DX009 (ip), vehicle: Klucel (hydroxypropylcellulose) (HPC) 107 % of control | [2] 112 % of control

O=[N+]([O-])c1c(NC2(CO)CCCC2)ncnc1NC1(CO)CCCC1
inactive: dose: 65.5 mg/kg/injection, schedule: Q04DX003 (ip), vehicle: Klucel (hydroxypropylcellulose) (HPC) 97 % of control | dose: 131.0 mg/kg/injection, schedule: Q04DX003 (ip), vehicle: Klucel (hydroxypropylcellulose) (HPC) 105 % of control | dose: 262.0 mg/kg/injection, schedule: Q04DX003 (ip), vehicle: Klucel (hydroxypropylcellulose) (HPC) 102 % of control

CC(C)c1cc(N(C)C)cc(=S)[nH]1
inactive: dose: 50.0 mg/kg/injection, schedule: Q01DX005 (ip), vehicle: saline 104 % of control | dose: 100.0 mg/kg/injection, schedule: Q01DX005 (ip), vehicle: saline 94 % of control | dose: 200.0 mg/kg/injection, schedule: Q01DX005 (ip), vehicle: saline 102 % of control

CCN1/C(=C\C2=C([O-])C(=C/c3sc4ccccc4[n+]3CC)/C2=O)Sc2ccccc21
inactive: dose: 60.0 mg/kg/injection, schedule: Q01DX005 (ip), vehicle: Klucel (hydroxypropylcellulose) (HPC) 103 % of control | dose: 120.0 mg/kg/injection, schedule: Q01DX005 (ip), vehicle: Klucel (hydroxypropylcellulose) (HPC) 119 % of control | dose: 240.0 mg/kg/injection, schedule: Q01DX005 (ip), vehicle: Klucel (hydroxypropylcellulose) (HPC) 86 % of control

Brc1ccc(C2=NOP(c3ccccc3)(c3ccccc3)(c3ccccc3)C2)cc1
inactive: [2] 99 % of control | [3] 96 % of control

COc1cccc(S(=O)c2ccc([N+](=O)[O-])c3no[n+]([O-])c23)c1 (configuration not stated)
inactive: dose: 3.75 mg/kg/injection, schedule: Q01DX009 (ip), vehicle: saline with Tween-80 95 % of control | dose: 7.5 mg/kg/injection, schedule: Q01DX009 (ip), vehicle: saline with Tween-80 104 % of control | dose: 15.0 mg/kg/injection, schedule: Q01DX009 (ip), vehicle: saline with Tween-80 112 % of control

O=C1OCCC1C(O)c1ccccc1 (configuration not stated)
inactive: dose: 25.0 mg/kg/injection, schedule: Q01DX009 (ip), vehicle: other 110 % of control | dose: 50.0 mg/kg/injection, schedule: Q01DX009 (ip), vehicle: other 102 % of control | dose: 100.0 mg/kg/injection, schedule: Q01DX009 (ip), vehicle: other 110 % of control | dose: 200.0 mg/kg/injection, schedule: Q01DX009 (ip), vehicle: other 107 % of control | dose: 400.0 mg/kg/injection, schedule: Q01DX009 (ip), vehicle: other 111 % of control

CCOC(=O)c1cnc(SC)n(-c2c(Cl)cccc2Cl)c1=O
inactive: [4] 98 % of control | [5] 97 % of control | [6] 99 % of control

CC(NC(=O)C(Cc1ccc(O)cc1)NC(=O)C(C)NC(=O)OCc1ccccc1)C(=O)O (stereo not drawn) (Cbz-Ala-Tyr-Ala-OH; configuration not given here)
inactive: dose: 50.0 mg/kg/injection, schedule: Q01DX005 (ip), vehicle: saline with Tween-80 100 % of control | dose: 100.0 mg/kg/injection, schedule: Q01DX005 (ip), vehicle: saline with Tween-80 104 % of control | dose: 200.0 mg/kg/injection, schedule: Q01DX005 (ip), vehicle: saline with Tween-80 99 % of control

S=c1oc(-c2ccc3c(c2)OCO3)nn1CN1CCN(Cn2nc(-c3ccc4c(c3)OCO4)oc2=S)CC1
inactive: [4] 96 % of control | [5] 96 % of control | [6] 93 % of control

CCOP(O)(=S)OCC.[Ti]
inactive: [2] 96 % of control | [3] 101 % of control | dose: 200.0 mg/kg/injection, schedule: Q01DX009 (ip), vehicle: Klucel (hydroxypropylcellulose) (HPC) 92 % of control

COc1ccc(C2C3C(=O)NC(=O)C2C(=O)NC3=O)cc1OC (configuration not stated)
inactive: [7] 101 % of control | [8] 108 % of control | [9] 90 % of control

Nc1nnc2nc(CC(=O)c3ccc4ccccc4c3)c(=O)[nH]n12
inactive: [7] 95 % of control | [8] 100 % of control | [9] 103 % of control

CSC(=O)NC(=Nc1ccccc1)NC(=O)c1ccccc1
inactive: [10] 90 % of control | [11] 93 % of control | [4] 91 % of control | [5] 88 % of control | [6] 89 % of control and 91 % of control

CC(=O)O.CC(=O)O.CC[OH+]CC[OH+]CC[OH+]C1CCCC2CCC[N-]C21.[Zn] (configuration not stated)
inactive: dose: 6.25 mg/kg/injection, schedule: Q01DX005 (ip), vehicle: Klucel (hydroxypropylcellulose) (HPC) 111 % of control | [10] 105 % of control and 113 % of control (2×) | [11] 109 % of control and 113 % of control and 116 % of control

OCC1N2CCC(CC2)C1(O)O (configuration not stated)
inactive: dose: 100.0 mg/kg/injection, schedule: Q04DX003 (ip), vehicle: suspension in saline 96 % of control | dose: 200.0 mg/kg/injection, schedule: Q04DX003 (ip), vehicle: suspension in saline 100 % of control | dose: 400.0 mg/kg/injection, schedule: Q04DX003 (ip), vehicle: suspension in saline 106 % of control

c1cc2c(ccc3c4c([nH]c32)CCCC4)cn1
inactive: dose: 12.5 mg/kg/injection, schedule: Q01DX009 (ip), vehicle: saline with Tween-80 101 % of control | [1] 105 % of control | dose: 50.0 mg/kg/injection, schedule: Q01DX009 (ip), vehicle: saline with Tween-80 99 % of control | dose: 100.0 mg/kg/injection, schedule: Q01DX009 (ip), vehicle: saline with Tween-80 98 % of control

CC(C)C(NSC(=O)C1CCCN1Sc1ccc([N+](=O)[O-])cc1[N+](=O)[O-])C(=O)OCc1ccccc1 (configuration not stated)
inactive: [11] 92 % of control | [4] 94 % of control | [5] 86 % of control and 93 % of control | [6] 93 % of control

COc1ccc2nc(C)c(C)nc2c1Cl
inactive: [4] 98 % of control | [5] 100 % of control | [6] 95 % of control

C1=C(c2ccccc2)N2CCCNC2(c2ccccc2)CS1 (configuration not stated)
inactive: dose: 100.0 mg/kg/injection, schedule: Q04DX002 (ip), vehicle: saline with Tween-80 90 % of control | dose: 200.0 mg/kg/injection, schedule: Q04DX002 (ip), vehicle: saline with Tween-80 90 % of control | dose: 400.0 mg/kg/injection, schedule: Q04DX002 (ip), vehicle: saline with Tween-80 88 % of control

From PubChem BioAssay AID330 (DTP/NCI, 2004)
